In patent US9637498B2, “Substituted thieno[2,3-C]pyridazine-6-carboxamide analogs as positive allosteric modulators of the muscarinic acetylcholine receptor M4” (Vanderbilt University, priority 2013, dated 2017):

Biological target: T1, mAChR M4 (Homo sapiens, UniProt P08173)
T1 construct: expressed in transfected cells; host or cells: CHO-K1 cells, also stably transfected with the chimeric G-protein Gqi5
T1 sequence (P08173 1-479): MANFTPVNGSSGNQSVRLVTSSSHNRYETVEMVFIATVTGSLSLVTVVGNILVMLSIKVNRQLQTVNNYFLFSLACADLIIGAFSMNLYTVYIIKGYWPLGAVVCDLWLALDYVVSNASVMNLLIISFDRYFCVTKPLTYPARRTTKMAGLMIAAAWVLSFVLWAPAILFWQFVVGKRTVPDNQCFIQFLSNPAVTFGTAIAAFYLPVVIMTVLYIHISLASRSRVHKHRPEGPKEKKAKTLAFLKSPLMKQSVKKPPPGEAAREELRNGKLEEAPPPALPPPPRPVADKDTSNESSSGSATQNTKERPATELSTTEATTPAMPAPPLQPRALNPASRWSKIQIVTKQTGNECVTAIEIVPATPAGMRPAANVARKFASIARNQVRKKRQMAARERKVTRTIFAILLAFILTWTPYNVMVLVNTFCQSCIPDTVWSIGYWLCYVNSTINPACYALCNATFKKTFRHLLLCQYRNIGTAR
Experiment: mAChR M4 cell-based functional assay (calcium mobilization, potentiation of EC20 acetylcholine response)
Conditions: for Emax at 30 µM: % ACh maximum at 30 μM; for EC50: CHO-K1 cells expressing mAChR M4 (Gqi5), calcium flux, increase in EC20 acetylcholine response, >10,000 estimated where the curve has no plateau
Text: Chinese hamster ovary (CHO-K1) cells stably expressing rat (r)M1 were purchased from the American Type Culture Collection and cultured according to their indicated protocol. CHO cells stably expressing human (h)M2, hM3, and hM5 were described previously (Levey et al., 1991); hM1 and hM4 cDNAs were purchased from Missouri S&T cDNA Resource; rM4 cDNA was provided by T. I. Bonner (National Institutes of Health, Bethesda, Md.). rM2 and rM3 were cloned from a rat brain cDNA library and sequence verified. hM1, rM2, rM3, hM4, and rM4 cDNAs were used to stably transfect CHO-K1 cells purchased from the American Type Culture Collection using Lipofectamine 2000. To make stable rM2, hM2, hM4, and rM4 cell lines for use in calcium mobilization assays, these cells also were stably transfected with a chimeric G-protein (Gqi5) (provided by B. R. Conklin, University of California, San Francisco) using Lipofectamine 2000. rM1, hM1, rM3, hM3, rM5, and hM5 cells were grown in Ham's F-12 medium containing 10% heat-inactivated fetal bovine serum (FBS), 20 mM HEPES, and 50 µg/mL G418 sulfate. rM2-Gqi5, hM2-Gqi5, and hM4-Gqi5 cells were grown in the same medium also containing 500 µg/mL Hygromycin B. Stable rM4-Gqi5 cells were grown in DMEM containing 10% heat-inactivated FBS, 20 mM HEPES, 400 μg/mL G418 sulfate, and 500 μg/mL Hygromycin B.
For high throughput measurement of agonist-evoked increases in intracellular calcium, CHO-K1 cells stably expressing muscarinic receptors were plated in growth medium lacking G418 and hygromycin at 15,000 cells/20 μL/well in Greiner 384-well black-walled, tissue culture (TC)-treated, clear-bottom plates (VWR). Cells were incubated overnight at 37° C. and 5% CO2. The next day, cells were washed using an ELX 405 (BioTek) with four washes (80 μL) of assay buffer then aspirated to 20 μL. Next, 20 μL of 16 μM Fluo-4/acetoxymethyl ester (Invitrogen, Carlsbad, Calif.) prepared as a 2.3 mM stock in DMSO and mixed in a 1:1 ratio with 10% (w/v) Pluronic F-127 and diluted in assay buffer was added to the wells and the cell plates were incubated for 50 min at 37° C. and 5% CO2. Dye was removed by washing with the ELX 405 (four 80 μL washes of assay buffer) then aspirated to 20 μL. Compound master plates were formatted in an 11 point CRC format (1:3 dilutions) in 100% DMSO with a starting concentration of 10 mM using the BRAVO liquid handler (Agilent). Test compound CRCs were then transferred to daughter plates (240 nL) using the Echo acoustic plate reformatter (Labcyte, Sunnyvale, Calif.) and then diluted into assay buffer (40 μL) to a 2× stock using a Thermo Fisher Combi (Thermo Fisher Scientific, Waltham, Mass.).
Calcium flux was measured using the Functional Drug Screening System (FDSS) 6000 (Hamamatsu Corporation, Tokyo, Japan) as an increase in the fluorescent static ratio. Compounds were applied to cells (20 μL, 2×) using the automated system of the FDSS 6000 at 4 s into the 300 s protocol and the data were collected at 1 Hz. At 144 s into the 300 s protocol, 10 μL of an EC20 concentration of the muscarinic receptor agonist acetylcholine was added (5×), followed by the addition of 12 μL an EC80 concentration of acetylcholine at the 230 s time point (5×). Agonist activity was analyzed as a concentration-dependent increase in calcium mobilization upon compound addition. Positive allosteric modulator activity was analyzed as a concentration-dependent increase in the EC20 acetylcholine response. Antagonist activity was analyzed as a concentration-dependent decrease in the EC80 acetylcholine response. Concentration-response curves were generated using a four-parameter logistical equation in XLFit™ curve fitting software (IDBS, Bridgewater, N.J.) for Excel (Microsoft, Redmond, Wash.) or Prism (GraphPad Software, Inc., San Diego, Calif.). […]

| SMILES | Emax at 30 µM | EC50 |
| --- | --- | --- |
| COc1ccc(C2CC2NC(=O)c2sc3nnc(C)c(C)c3c2C)cc1 (centres unmarked) [B21] | 51% | 2.1 µM |
| Cc1nnc2sc(C(=O)NC3CCC3)c(C3CC3)c2c1C [B15] | 33% | 5.2 µM |
| Cc1nnc2sc(C(=O)NC3CN(c4cccnc4)C3)c(C)c2c1C [B20] | 69% | 0.91 µM |
| Cc1nnc2sc(C(=O)NC3COC3)c(C)c2c1C [B23] | 65% | > 10 µM |
| Cc1nnc2sc(C(=O)N3CCC(c4ccccc4)C3)c(C)c2c1C (centres unmarked) [B19] | – | > 10 µM |
| Cc1nnc2sc(C(=O)NC3CC3)cc2c1C [B7] | 72% | 4.3 µM |
| Cc1nnc2sc(C(=O)NC3CN(c4ccc(C(F)(F)F)nc4)C3)c(C3CC3)c2c1C [B22] | 24% | 3.1 µM |
| Cc1nnc2sc(C(=O)NC3CC(F)(F)C3)c(C3CC3)c2c1C [B17] | 35% | > 10 µM |
| Cc1nnc2sc(C(=O)N3CC(c4ccccc4)C3)c(C3CC3)c2c1C [B8] | – | > 10 µM |
| COc1ccc(CNC(=O)c2sc3nnc(C)c(C)c3c2Br)cc1 [B2] | 36% | 3.7 µM |
| Cc1nnc2sc(C(=O)N3CCC(c4ccccc4)C3)c(C3CC3)c2c1C (centres unmarked) [B16] | – | > 10 µM |

The next lines start with the values.

| Emax at 30 µM | EC50 | SMILES |
| --- | --- | --- |
| 35% | > 10 µM | Cc1nnc2sc(C(=O)NC3CC3)c(C3CC3)c2c1C [B11] |
| – | > 10 µM | COc1ccc(C2CC2NC(=O)c2sc3nnc(C)c(C)c3c2C2CC2)cc1 (centres unmarked) [B12] |
| 46% | ~9 µM | Cc1nnc2sc(C(=O)NC3COC3)c(C3CC3)c2c1C [B13] |
| – | > 10 µM | Cc1nnc2sc(C(=O)NCc3ccc(S(=O)(=O)C(F)(F)F)cc3)c(Br)c2c1C [B1] |
| 53% | 1 µM | Cc1nnc2sc(C(=O)NC3CN(c4ccc(C(F)(F)F)nc4)C3)cc2c1C [B3] |
| 38% | 4.4 µM | COc1ccc(CNC(=O)c2sc3nnc(C)c(C)c3c2C2CC2)cc1F [B18] |
| 68% | 1.4 µM | COc1ccc(CNC(=O)c2cc3c(C)c(C)nnc3s2)cc1F [B4] |
| 76% | 3.9 µM | Cc1nnc2sc(C(=O)NC3COC3)cc2c1C [B6] |
| 59% | 2 µM | COc1ccc(CNC(=O)c2sc3nnc(C)c(C)c3c2C)cc1F [B9] |
| – | > 10 µM | Cc1nnc2sc(C(=O)NC3CCN(c4ccccc4)C3)cc2c1C (centres unmarked) [B5] |
| 68% | > 10 µM | Cc1nnc2sc(C(=O)NC3CC3)c(C)c2c1C [B14] |
